Laboratory results reported in patent US20140187784A1, “RADIOACTIVE QUINOLINONE DERIVATIVE AND PHARMACEUTICAL DRUG COMPRISING THE SAME” (Nihon Medi-Physics Co., Ltd., priority 2012, published 2014).

Assay: Pharmacokinetic and distribution experiment (radioactivity in blood and excised organs after tail vein injection)
Assay type: in vivo
Settings: ddy mice; for Adrenal gland/Blood ratio / Adrenal gland/Kidney ratio / Adrenal gland/Liver ratio / Radioactivity Distribution, Adrenal gland / Radioactivity Distribution, Blood / Radioactivity Distribution, Heart / Radioactivity Distribution, Kidney / Radioactivity Distribution, Large intestine / Radioactivity Distribution, Liver / Radioactivity Distribution, Lung / Radioactivity Distribution, Pancreas / Radioactivity Distribution, Small intestine / Radioactivity Distribution, Spleen / Radioactivity Distribution, Stomach / Radioactivity Distribution, Thyroid: tail vein injection, 18.5 kBq (0.5 μCi)
Procedure: (§1) The HPLC fraction of [^125I]PAY15 obtained in Example 3 was concentrated and then diluted with saline. The resulting solution was used in administration. 100 μL of the solution (18.5 kBq (0.5 μCi)) was injected to the tail vein of each of five ddy mice (6 weeks old). Five minutes later, each mouse was decapitated, and blood was collected. Then, organs (adrenal gland, pancreas, heart, lung, stomach, small intestine, large intestine, liver, spleen, kidney, and thyroid gland) were excised. After measurement of their weights, the radioactivities of blood and each excised organ were measured. Also, the point in time when each mouse was decapitated was changed to 5, 15, 30, 60, and 120 minutes later to perform similar operation.
The HPLC fraction of [^125I]PAY21 obtained in Example 6 was concentrated and then diluted with saline. The resulting solution was used in administration to perform the same operation as in Evaluation 1.
as §1, with “[^18F]PAY27 obtained” for “The HPLC fraction of [^125I]PAY15 obtained”, “Example 10” for “Example 3”, “was” for “was concentrated and then”, “solution (14.8” for “solution (18.5”, “kBq (4” for “kBq (0.5”, “and thigh bone)” for “and thyroid gland)”
as §1, with “[^18F]PAY54 obtained” for “The HPLC fraction of [^125I]PAY15 obtained”, “Example 13” for “Example 3”, “was” for “was concentrated and then”, “solution (14.8” for “solution (18.5”, “kBq (4” for “kBq (0.5”, “and thigh bone)” for “and thyroid gland)”

O=C1CCc2cc(-c3cncc([125I])c3)cc3c2N1CCC3 [[^125I]PAY15, 9-(5-[^125I]iodopyridin-3-yl)-1,2,6,7-tetrahydro-5H-pyrido[3,2,1-ij]quinolin-3-one]
radioactivity accumulation in the adrenal gland compared with blood and periadrenal tissues (at an early stage after administration): high radioactivity accumulation
Adrenal gland/Blood ratio (5 min): 1.74 ± 0.12
Adrenal gland/Kidney ratio (5 min): 1.42 ± 0.03
Adrenal gland/Liver ratio (5 min): 1.70 ± 0.23
Radioactivity Distribution, Adrenal gland (5 min): 8.7 ± 1.7 % dose/g
Radioactivity Distribution, Blood (5 min): 5.0 ± 1.2 % dose/g
Radioactivity Distribution, Heart (5 min): 3.6 ± 0.8 % dose/g
Radioactivity Distribution, Kidney (5 min): 6.1 ± 1.2 % dose/g
Radioactivity Distribution, Large intestine (5 min): 1.9 ± 0.8 % dose/g
Radioactivity Distribution, Liver (5 min): 5.1 ± 1.1 % dose/g
Radioactivity Distribution, Lung (5 min): 7.4 ± 1.6 % dose/g
Radioactivity Distribution, Pancreas (5 min): 4.0 ± 0.9 % dose/g
Radioactivity Distribution, Small intestine (5 min): 3.7 ± 0.9 % dose/g
Radioactivity Distribution, Spleen (5 min): 4.1 ± 0.8 % dose/g
Radioactivity Distribution, Stomach (5 min): 3.5 ± 1.2 % dose/g
Radioactivity Distribution, Thyroid (5 min): 71.6 ± 50.0 % dose/g
Adrenal gland/Blood ratio (15 min): 1.18 ± 0.15
Adrenal gland/Kidney ratio (15 min): 1.24 ± 0.17
Adrenal gland/Liver ratio (15 min): 1.81 ± 0.07
Radioactivity Distribution, Adrenal gland (15 min): 7.3 ± 3.9 % dose/g
Radioactivity Distribution, Blood (15 min): 4.9 ± 0.3 % dose/g
Radioactivity Distribution, Heart (15 min): 2.6 ± 0.5 % dose/g
Radioactivity Distribution, Kidney (15 min): 4.5 ± 0.4 % dose/g
Radioactivity Distribution, Large intestine (15 min): 1.8 ± 0.2 % dose/g
Radioactivity Distribution, Liver (15 min): 3.0 ± 0.3 % dose/g
Radioactivity Distribution, Lung (15 min): 4.9 ± 0.3 % dose/g
Radioactivity Distribution, Pancreas (15 min): 2.8 ± 0.1 % dose/g
Radioactivity Distribution, Small intestine (15 min): 4.6 ± 0.9 % dose/g
Radioactivity Distribution, Spleen (15 min): 3.2 ± 0.3 % dose/g
Radioactivity Distribution, Stomach (15 min): 12.1 ± 2.0 % dose/g
Radioactivity Distribution, Thyroid (15 min): 349.4 ± 115.9 % dose/g
Adrenal gland/Blood ratio (30 min): 0.74 ± 0.40
Adrenal gland/Kidney ratio (30 min): 0.75 ± 0.20
Adrenal gland/Liver ratio (30 min): 1.82 ± 0.53
Radioactivity Distribution, Adrenal gland (30 min): 2.3 ± 1.2 % dose/g
Radioactivity Distribution, Blood (30 min): 3.1 ± 0.3 % dose/g
Radioactivity Distribution, Heart (30 min): 1.3 ± 0.1 % dose/g
Radioactivity Distribution, Kidney (30 min): 3.5 ± 0.9 % dose/g
Radioactivity Distribution, Large intestine (30 min): 1.6 ± 0.2 % dose/g
Radioactivity Distribution, Liver (30 min): 1.5 ± 0.2 % dose/g
Radioactivity Distribution, Lung (30 min): 3.6 ± 1.6 % dose/g
Radioactivity Distribution, Pancreas (30 min): 1.7 ± 0.1 % dose/g
Radioactivity Distribution, Small intestine (30 min): 4.0 ± 0.4 % dose/g
Radioactivity Distribution, Spleen (30 min): 2.2 ± 0.3 % dose/g
Radioactivity Distribution, Stomach (30 min): 25.0 ± 6.4 % dose/g
Radioactivity Distribution, Thyroid (30 min): 486.5 ± 245.4 % dose/g
Adrenal gland/Blood ratio (60 min): 0.82 ± 0.16
Adrenal gland/Kidney ratio (60 min): 0.84 ± 0.21
Adrenal gland/Liver ratio (60 min): 1.90 ± 0.47
Radioactivity Distribution, Adrenal gland (60 min): 1.7 ± 1.3 % dose/g
Radioactivity Distribution, Blood (60 min): 2.9 ± 0.2 % dose/g
Radioactivity Distribution, Heart (60 min): 1.0 ± 0.0 % dose/g
Radioactivity Distribution, Kidney (60 min): 2.7 ± 0.6 % dose/g
Radioactivity Distribution, Large intestine (60 min): 1.7 ± 0.5 % dose/g
Radioactivity Distribution, Liver (60 min): 1.2 ± 0.1 % dose/g
Radioactivity Distribution, Lung (60 min): 2.4 ± 0.1 % dose/g
Radioactivity Distribution, Pancreas (60 min): 1.5 ± 0.1 % dose/g
Radioactivity Distribution, Small intestine (60 min): 4.0 ± 0.4 % dose/g
Radioactivity Distribution, Spleen (60 min): 1.6 ± 0.2 % dose/g
Radioactivity Distribution, Stomach (60 min): 31.3 ± 11.2 % dose/g
Radioactivity Distribution, Thyroid (60 min): 1298.8 ± 729.1 % dose/g
Adrenal gland/Blood ratio (120 min): 0.86 ± 0.46
Adrenal gland/Kidney ratio (120 min): 0.87 ± 0.42
Adrenal gland/Liver ratio (120 min): 0.73 ± 0.42
Radioactivity Distribution, Adrenal gland (120 min): 2.1 ± 1.4 % dose/g
Radioactivity Distribution, Blood (120 min): 2.3 ± 0.5 % dose/g
Radioactivity Distribution, Heart (120 min): 0.8 ± 0.2 % dose/g
Radioactivity Distribution, Kidney (120 min): 2.7 ± 1.6 % dose/g
Radioactivity Distribution, Large intestine (120 min): 2.4 ± 1.0 % dose/g
Radioactivity Distribution, Liver (120 min): 1.0 ± 0.2 % dose/g
Radioactivity Distribution, Lung (120 min): 2.0 ± 0.4 % dose/g
Radioactivity Distribution, Pancreas (120 min): 1.3 ± 0.3 % dose/g
Radioactivity Distribution, Small intestine (120 min): 3.0 ± 0.6 % dose/g
Radioactivity Distribution, Stomach (120 min): 27.4 ± 5.2 % dose/g
Radioactivity Distribution, Thyroid (120 min): 1400.6 ± 695.3 % dose/g
